Test results taken from patent US6706692B1, “6-deoxy erythromycin derivatives, method for preparing same and use as medicines” (Aventis Pharma S.A., priority 1998, dated 2004).

Key:
Assay in all cases: Method of dilutions in liquid medium (M.I.C.)
Type in all cases: cell-based
Settings in all cases: reading after 24 hours, 37° C.
E. faecalis 02D2UC1 = system: E. faecalis 02D2UC1
Procedure: (§1) A—Method of Dilutions in Liquid Medium A series of tubesis prepared in which the same quantity of nutritive sterile medium is distributed. Increasing quantities of the product to be studied are distributed into each tube, then each tube is sown with a bacterial strain. After incubation for twenty-four hours in a heating chamber at 37° C., the growth inhibition is evaluated by transillumination, which allows the minimal inhibitory concentrations (M.I.C.) to be determined, expressed in micrograms/cm^3. The following results were obtained with the product of the example: (reading after 24 hours)

E. faecium 02D3HT1 = system: E. faecium 02D3HT1
Procedure: as §1

S. agalactiae 02B1HT1 = system: S. agalactiae 02B1HT1
Procedure: as §1

S. agalactiae 02B1SJ1c = system: S. agalactiae 02B1SJ1c
Procedure: as §1

S. aureus 011UC4 = system: S. aureus 011UC4
Procedure: as §1

S. mitis 02MitCB1 = system: S. mitis 02MitCB1
Procedure: as §1

S. mitis 02MitGR16i = system: S. mitis 02MitGR16i
Procedure: as §1

S. pneumoniae 030GR20 = system: S. pneumoniae 030GR20
Procedure: as §1

S. pneumoniae 030PW23c = system: S. pneumoniae 030PW23c
Procedure: as §1

S. pneumoniae 030RO1i = system: S. pneumoniae 030RO1i
Procedure: as §1

S. pneumoniae 030SJ5i = system: S. pneumoniae 030SJ5i
Procedure: as §1

S. pneumoniae 032UC1 = system: S. pneumoniae 032UC1
Procedure: as §1

[1] = system: Streptococcus gr;G 02GOGR5
Procedure: as §1

In the case of “3-de[2,6-dideoxy-3-C-methyl-3-0-methyl-alpha-L-ribo-hexopyranosyl)-oxy]-3-oxo-12,11-[oxycarbonyl[[4-[4-(3-pyridinyl)-1H-imidazol-1-yl]-butyl]-imino]]-6,11,12-trideoxy-erythromycin [product of the example]”, the “minimal inhibitory concentrations (M.I.C.)” value (E. faecalis 02D2UC1) is reported as 0.080 micrograms/cm^3, the “minimal inhibitory concentrations (M.I.C.)” value (E. faecium 02D3HT1) is reported as 0.040 micrograms/cm^3 and the “minimal inhibitory concentrations (M.I.C.)” value (S. agalactiae 02B1HT1) is reported as “<+0.02 micrograms/cm^3”. The “minimal inhibitory concentrations (M.I.C.)” value (S. agalactiae 02B1SJ1c) was 2.500 micrograms/cm^3, the “minimal inhibitory concentrations (M.I.C.)” value (S. aureus 011UC4) was 0.300 micrograms/cm^3 and the “minimal inhibitory concentrations (M.I.C.)” value (S. mitis 02MitCB1) was 0.040 micrograms/cm^3. The “minimal inhibitory concentrations (M.I.C.)” value (S. mitis 02MitGR16i) was 0.300 micrograms/cm^3, the “minimal inhibitory concentrations (M.I.C.)” value (S. pneumoniae 030GR20) was 0.600 micrograms/cm^3 and the “minimal inhibitory concentrations (M.I.C.)” value (S. pneumoniae 030PW23c) was 0.300 micrograms/cm^3. For the same substance, the “minimal inhibitory concentrations (M.I.C.)” value (S. pneumoniae 030RO1i) was 0.600 micrograms/cm^3, the “minimal inhibitory concentrations (M.I.C.)” value (S. pneumoniae 030SJ5i) was 0.600 micrograms/cm^3 and the “minimal inhibitory concentrations (M.I.C.)” value (S. pneumoniae 032UC1) was “<=0.02 micrograms/cm^3”. For the same substance, the “minimal inhibitory concentrations (M.I.C.)” value [1] was 0.040 micrograms/cm^3.
